Source: patent US11629171B2, “Beta-hairpin peptidomimetics” (POLYPHOR AG, priority 2017, dated 2023)
Converted amounts (≈) assume the structure as drawn. Where a SMILES comes first, the peptide text is derived from it. Bridges are numbered along the chain shown (N, C = ends). Roman numbers before positions name the chains, in order. [ ]: non-standard residue; d: D form. The star is where a group is joined. Tle = CC(C)(C)[C@H](N)C(=O)O; Hiv = CC(C)[C@H](O)C(=O)O; dDab = NCC[C@@H](N)C(=O)O; hSer = N[C@@H](CCO)C(=O)O; NHCH(CH2OH)2 = OCC(CO)N*; Orn = NCCC[C@H](N)C(=O)O; Dab = NCC[C@H](N)C(=O)O; Dap = NC[C@H](N)C(=O)O

Key:
Assay type in all cases: cell-based
[1] = tested on: human red blood cells (hRBC); assay: Hemolysis; settings: red cells of human, 1 h, 200
Description: The peptides were tested for their hemolytic activity against human red blood cells (hRBC). Fresh hRBC were washed four times with phosphate buffered saline (PBS) and centrifuged for 10 min at 3000×g. Compounds (200 μg/mL) were incubated with 20% hRBC (v/v) for 1 h at 37° C. and shaking at 300 rpm. A value of 0% and 100% cell lysis, respectively, was determined by incubation of hRBC in the presence of PBS containing 10% water and 2% Triton X-100 in H2O, respectively. The samples were centrifuged, the supernatants were ˜7.5-fold diluted in PBS buffer and the optical densities (OD) were measured at 540 nm and blank corrected. The 100% lysis value (OD540Triton X-100) gave an OD540 of approximately 0.5-1.0.
Percent hemolysis was calculated as follows: (OD540peptide/OD540Triton X-100)×100%.

[2] = tested on: Acinetobacter baumannii DSM 30008; settings: DSM 30008
Description: (§1) The in vitro antimicrobial activities of the peptides were determined in 96-well plates (Greiner, polystyrene) by the standard CLSI broth microdilution method (Clinical and Laboratory Standards Institute 2014. Performance standards for antimicrobial susceptibility testing, 24th informational supplement. Approved standard CLSI M100-S24; Clinical and Laboratory Standards Institute, Wayne, Pa.). The following microorganisms were used to determine antibiotic activity of the peptides: Escherichia coli ATCC 25922, Klebsiella pneumoniae SSI #3010^a), Acinetobacter baumannii DSM 30008, Pseudomonas aeruginosa ATCC 27853 and the clinical isolates Escherichia coli 926415^b), Klebsiella pneumoniae 968733^b), Acinetobacter baumannii 872842^b), Enterobacter cloacae 848840^b) and Escherichia coli MCR-1 Af45^c). Before preparation of inocula, Escherichia coli MCR-1 Af45 was subcultured on Mueller-Hinton II (MH-cation adjusted) agar containing 2 μg/mL colistin. ^a) Obtained from Statens Serum Institut (SSI), Copenhagen, Denmark^b) Obtained from International Health Management Associates, Inc. (IHMA Europe Sàrl), Epalinges, Switzerland^c) Obtained from Prof. Patrice Nordmann, University of Fribourg, Fribourg, Switzerland
(§2) Inocula of the microorganisms were diluted into Mueller-Hinton II (MH-cation adjusted) broth and compared with a 0.5 McFarland standard to give appr. 10^6 colony forming units (CFU)/mL. Aliquots (90 μL) of inoculum were added to 10 μL of MH-II broth+P-80 (Polysorbate 80, 0.002% final concentration, v/v) containing the peptide in serial two-fold dilutions. Antimicrobial activities of the peptides were expressed as the minimal inhibitory concentration (MIC) in μg/mL at which no visible growth was observed after 18-20 hours of incubation at 35° C.

[3] = tested on: Escherichia coli ATCC 25922; settings: ATCC 25922
Description: as §1, §2

[4] = tested on: Klebsiella pneumoniae 968733; settings: 968733
Description: as §1, §2

[5] = tested on: Klebsiella pneumoniae SSI #3010; settings: SSI #3010
Description: as §1, §2

[6] = tested on: Acinetobacter baumannii 872842; settings: 872842
Description: as §1, §2

Escherichia coli 926415 = settings: 926415
Description: as §1, §2

[7] = tested on: Pseudomonas aeruginosa ATCC 27853; settings: ATCC 27853
Description: as §1, §2

Compound | Hemolysis at 200 μg/mL [1] | MIC [2] | MIC [3] | MIC [4] | MIC [5] | MIC [6] | MIC (Escherichia coli 926415) | MIC [7]
CC(=O)N[C@H](C(=O)N[C@H]1CSSC[C@@H](C(=O)N[C@H](C(N)=O)C(C)C)NC(=O)[C@H](Cc2ccc(O)cc2)NC(=O)[C@H](CO)NC(=O)[C@H](Cc2c[nH]c3ccccc23)NC(=O)[C@H](CCO)NC(=O)[C@@H](CCN)NC(=O)[C@H](CCC(=O)N[C@@H](CCN)C(=O)N[C@H](C(=O)N[C@@H](CCN)C(=O)N[C@H]2CCNC(=O)[C@H]([C@@H](C)O)NC(=O)[C@H](CCN)NC(=O)[C@H](CCN)NC(=O)[C@H](CC(C)C)NC(=O)[C@@H](CC(C)C)NC(=O)[C@H](CCN)NC2=O)[C@@H](C)O)NC(=O)[C@H](CCN)NC(=O)[C@H](CO)NC1=O)C(C)C [Ex. 68] (I: Ac-VCS[Dab]E[dDab][hSer]WSYCV-NH2 / II: [Dab]T[Dab][Dab][Dab][dL]L[Dab][Dab]T; disulfide I:2-I:11; amide I:5-II:N; lactam II:4-II:C) | <1% | 0.25 µg/mL (≈ 0.103 µM) | 0.25 µg/mL (≈ 0.103 µM) | 1 µg/mL (≈ 0.412 µM) | 0.125 µg/mL (≈ 0.0515 µM) | 8 µg/mL (≈ 3.3 µM) | 2 µg/mL (≈ 0.824 µM) | 0.5 µg/mL (≈ 0.206 µM)
CC(C)C[C@@H]1NC(=O)[C@@H](CC(C)C)NC(=O)[C@H](CCN)NC(=O)[C@@H](NC(=O)[C@H](CCN)NC(=O)[C@@H](NC(=O)[C@H](CCN)NC(=O)CC[C@@H]2NC(=O)[C@H](CCN)NC(=O)[C@H](C(C)C)NC(=O)[C@@H](NC(=O)[C@@H](O)C(C)C)CSSC[C@@H](C(=O)NC(CO)CO)NC(=O)[C@H](Cc3ccc(O)cc3)NC(=O)[C@H](CO)NC(=O)[C@H](Cc3c[nH]c4ccccc34)NC(=O)[C@H](CCO)NC(=O)[C@@H](CCN)NC2=O)[C@@H](C)O)CCNC(=O)[C@H]([C@@H](C)O)NC(=O)[C@H](CCN)NC(=O)[C@H](CCN)NC1=O [Ex. 97] (I: H-[Hiv]CV[Dab]E[dDab][hSer]WSYC-{NHCH(CH2OH)2} / II: [Dab]T[Dab][Dab][Dab][dL]L[Dab][Dab]T; disulfide I:2-I:11; amide I:5-II:N; lactam II:4-II:C) | <1% | 0.25 µg/mL (≈ 0.105 µM) | 0.25 µg/mL (≈ 0.105 µM) | 8 µg/mL (≈ 3.37 µM) | 0.125 µg/mL (≈ 0.0527 µM) | 2 µg/mL (≈ 0.843 µM) | 2 µg/mL (≈ 0.843 µM) | 0.25 µg/mL (≈ 0.105 µM)
CC(C)C[C@@H]1NC(=O)[C@@H](CC(C)C)NC(=O)[C@H](CCN)NC(=O)[C@@H](NC(=O)[C@H](CN)NC(=O)[C@@H](NC(=O)[C@H](CCN)NC(=O)CC[C@@H]2NC(=O)[C@H](CCCN)NC(=O)[C@H](CCN)NC(=O)[C@H](Cc3ccc(O)cc3)NC(=O)[C@@H](NC(=O)[C@@H](O)C(C)C)CSSC[C@@H](C(=O)NC(CO)CO)NC(=O)[C@H](C(C)(C)C)NC(=O)[C@H](CO)NC(=O)[C@H](Cc3c[nH]c4ccccc34)NC(=O)[C@H]([C@@H](C)O)NC2=O)[C@@H](C)O)CCNC(=O)[C@H]([C@@H](C)O)NC(=O)[C@H](CCN)NC(=O)[C@H](CCN)NC1=O [Ex. 162] (I: H-[Hiv]CY[Dab][Orn]ETWS[Tle]C-{NHCH(CH2OH)2} / II: [Dab]T[Dap][Dab][Dab][dL]L[Dab][Dab]T; disulfide I:2-I:11; amide I:6-II:N; lactam II:4-II:C) | <1% | 0.25 µg/mL (≈ 0.105 µM) | 0.125 µg/mL (≈ 0.0524 µM) | 8 µg/mL (≈ 3.35 µM) | 0.5 µg/mL (≈ 0.209 µM) | 0.5 µg/mL (≈ 0.209 µM) | 1 µg/mL (≈ 0.419 µM) | 0.25 µg/mL (≈ 0.105 µM)
CC(=O)N[C@H](C(=O)N[C@H](C(=O)N[C@@H](Cc1ccc(O)cc1)C(=O)N[C@H]1CC(=O)NCC[C@@H](C(=O)N[C@H](C(=O)N[C@@H](C)C(=O)N[C@@H](CO)C(N)=O)C(C)C)NC(=O)[C@H](Cc2c[nH]c3ccccc23)NC(=O)[C@H](CCO)NC(=O)[C@@H](CCN)NC(=O)[C@H](CCC(=O)N[C@@H](CCN)C(=O)N[C@H](C(=O)N[C@@H](CCN)C(=O)N[C@H]2CCNC(=O)[C@H]([C@@H](C)O)NC(=O)[C@H](CCN)NC(=O)[C@H](CCN)NC(=O)[C@H](CC(C)C)NC(=O)[C@@H](CC(C)C)NC(=O)[C@H](CCN)NC2=O)[C@@H](C)O)NC1=O)[C@@H](C)O)C(C)C [Ex. 187] (I: Ac-VTYDE[dDab][hSer]W[Dab]VAS-NH2 / II: [Dab]T[Dab][Dab][Dab][dL]L[Dab][Dab]T; lactam I:4-I:9, II:4-II:C; amide I:5-II:N) | <1% | 0.5 µg/mL (≈ 0.208 µM) | 0.125 µg/mL (≈ 0.052 µM) |  | 0.25 µg/mL (≈ 0.104 µM) |  |  | 0.5 µg/mL (≈ 0.208 µM)
CC(=O)N[C@@H](CCN)C(=O)N[C@H](C(=O)N[C@H](C(=O)N[C@@H](Cc1ccc(O)cc1)C(=O)N[C@H]1CSSC[C@@H](C(=O)N[C@H](C(=O)N[C@@H](CCN)C(N)=O)C(C)(C)C)NC(=O)[C@H](Cc2c[nH]c3ccccc23)NC(=O)[C@H](CO)NC(=O)[C@@H](CCN)NC(=O)[C@H](CCC(=O)N[C@@H](CCN)C(=O)N[C@H](C(=O)N[C@@H](CN)C(=O)N[C@H]2CCNC(=O)[C@H]([C@@H](C)O)NC(=O)[C@H](CCN)NC(=O)[C@H](CCN)NC(=O)[C@H](CC(C)C)NC(=O)[C@@H](CC(C)C)NC(=O)[C@H](CCN)NC2=O)[C@@H](C)O)NC1=O)[C@@H](C)O)C(C)C [Ex. 218] (I: Ac-[Dab]VTYCE[dDab]SWC[Tle][Dab]-NH2 / II: [Dab]T[Dap][Dab][Dab][dL]L[Dab][Dab]T; disulfide I:5-I:10; amide I:6-II:N; lactam II:4-II:C) | <1% | 0.125 µg/mL (≈ 0.0512 µM) | 0.125 µg/mL (≈ 0.0512 µM) |  | 0.125 µg/mL (≈ 0.0512 µM) |  |  | 0.125 µg/mL (≈ 0.0512 µM)
CC(=O)N[C@H](C(=O)N[C@@H](CCN)C(=O)N[C@@H](Cc1ccc(O)cc1)C(=O)N[C@@H](CN)C(=O)N[C@@H](CCC(=O)N[C@@H](CCN)C(=O)N[C@H](C(=O)N[C@@H](CN)C(=O)N[C@H]1CCNC(=O)[C@H]([C@@H](C)O)NC(=O)[C@H](CCN)NC(=O)[C@H](CCN)NC(=O)[C@H](CC(C)C)NC(=O)[C@@H](CC(C)C)NC(=O)[C@H](CCN)NC1=O)[C@@H](C)O)C(=O)N[C@H](CCN)C(=O)N[C@@H](CO)C(=O)N[C@@H](Cc1c[nH]c2ccccc12)C(=O)N[C@@H](CO)C(=O)N[C@H](C(=O)N[C@@H](CCC(=O)O)C(=O)N[C@@H](CO)C(N)=O)C(C)(C)C)C(C)C [Ex. 229] (I: Ac-V[Dab]Y[Dap]E[dDab]SWS[Tle]ES-NH2 / II: [Dab]T[Dap][Dab][Dab][dL]L[Dab][Dab]T; amide I:5-II:N; lactam II:4-II:C) | 2% | 0.5 µg/mL (≈ 0.206 µM) | 0.125 µg/mL (≈ 0.0516 µM) |  | 0.125 µg/mL (≈ 0.0516 µM) |  |  | 0.5 µg/mL (≈ 0.206 µM)
CC(=O)N[C@H](C(=O)N[C@H](C(=O)N[C@@H](Cc1ccc(O)cc1)C(=O)N[C@@H](CCN)C(=O)N[C@@H](CCC(=O)N[C@@H](CCN)C(=O)N[C@H](C(=O)N[C@@H](CN)C(=O)N[C@H]1CCNC(=O)[C@H]([C@@H](C)O)NC(=O)[C@H](CCN)NC(=O)[C@H](CCN)NC(=O)[C@H](CC(C)C)NC(=O)[C@@H](CC(C)C)NC(=O)[C@H](CCN)NC1=O)[C@@H](C)O)C(=O)N[C@H](CCN)C(=O)N[C@H](C(=O)N[C@@H](Cc1c[nH]c2ccccc12)C(=O)N[C@@H](CCC(=O)O)C(=O)N[C@H](C(=O)N[C@@H](C)C(=O)N[C@@H](CO)C(N)=O)C(C)(C)C)[C@@H](C)O)[C@@H](C)O)C(C)C [Ex. 230] (I: Ac-VTY[Dab]E[dDab]TWE[Tle]AS-NH2 / II: [Dab]T[Dap][Dab][Dab][dL]L[Dab][Dab]T; amide I:5-II:N; lactam II:4-II:C) | <1% | 1 µg/mL (≈ 0.41 µM) | 0.25 µg/mL (≈ 0.103 µM) |  | 0.5 µg/mL (≈ 0.205 µM) |  |  | 1 µg/mL (≈ 0.41 µM)
